According to patent US4027039A (priority 1975, dated 1977):
Values joined by “and” are separate entries in the source; they are usually repeats but may differ in a detail not shown here. Identical values can stand only once. Like-named read-outs stand apart in the source and are kept apart here.

Key:
Herpes virus [1] = test system: Herpes virus
Vaccinia IHD virus = type: in vivo, mouse
Influenza PR 8 virus [2] = assay: Influenza PR 8 in mice, drug in drinking water (Table 34); type: in vivo, mouse
Herpes virus [3] = assay: Herpes virus in chicken eggs, single dose 24 hours pre-infection; type: in vivo, chick embryo
Vaccinia virus [4] = type: in vivo, rabbit; settings: rabbit, in vivo; thiosemicarbazone
Influenza PR 8 virus [5] = assay: Influenza PR 8 in mice, intravenous (Table 31); type: in vivo, mouse; settings: total dose .2 μg
Influenza PR 8 virus [6] = assay: Influenza PR 8 in mice, subcutaneous; late read day 6 (Table 37), 8 (Table 47); type: in vivo, mouse
viral infections = assay: Antiviral screening in animals, general statements; settings: mouse, in vivo
Columbia SK Polio virus = type: in vivo, mouse
Influenza PR 8 virus [7] = assay: Influenza PR 8 in mice, oral; schedule by table; late read day 6 (Table 37), 7 (33, 36), 8 (32, 35, 47), 10 (38); control fraction 18/20 (Table 32), 19/20 (Table 35), else 100%; type: in vivo, mouse
[8] = test system: Influenza B Massachusetts virus; assay: Influenza B Mass. in mice, oral; late read day 5 (Table 39), 7 (Table 40), 11 (Tables 61, 65); control fraction 16/20 (Table 61), else 100%; type: in vivo, mouse
Description: A portion of a commercially available sample of amantadine was recrystallized from isopropanol. The activity of the material against Influenza B Mass. was tested for the sample as obtained, the recrystallized portion, and the mother liquor obtained from recrystallizing the portion.

Vaccinia virus [9] = test system: Vaccinia virus; parameters: species or system fertile eggs; settings: various concentrations
[10] = test system: Influenza, Ann Arbor virus; assay: Influenza Ann Arbor in mice, subcutaneous; late read day 9 (Table 11), 7 (Tables 12, 14), 5 (Table 13); type: in vivo, mouse; settings: total dose .05 μg
[11] = total dose .000005 μg, thiosemicarbazone
[12] = total dose .00005 μg, listed as 2-butanone thiosemicarbazone
[13] = total dose .00005 μg, thiosemicarbazone

## CCC(C)=NNC(N)=S [2-Butanone, thiosemicarbazone, 2-butanone, thiosemicarbazone]
Herpes virus [1]; mouse, in vivo
  Survivors: 2
Herpes virus [1]; total dose .000005 μg
  No. animals surviving after 6-9 days: 1
  No. animals surviving when 100% (or given fraction) of controls are dead: 0
  Survivors: 0
Herpes virus [1]; total dose .00005 μg
  No. animals surviving after 6-9 days: 8
  No. animals surviving when 100% (or given fraction) of controls are dead: 4
Herpes virus [1]; total dose .0005 μg
  No. animals surviving after 6-9 days: 6
  No. animals surviving when 100% (or given fraction) of controls are dead: 5
  Survivors: 4
Herpes virus [1]; total dose .005 μg
  No. animals surviving after 6-9 days: 4
Herpes virus [1]; total dose .05 μg
  No. animals surviving when 100% (or given fraction) of controls are dead: 0
  Survivors: 0
Vaccinia IHD virus; 10 ng, day 5
  Statistical Significance of Tail Lesions: < .05
Vaccinia IHD virus; 10 ng, day 6
  Statistical Significance of Tail Lesions: < .01
Vaccinia IHD virus; 10 ng, day 7
  Statistical Significance of Tail Lesions: < .05
Vaccinia IHD virus; 10 ng, day 10
  Statistical Significance of Tail Lesions: < .01
Vaccinia IHD virus; 10 ng, day 11
  Statistical Significance of Tail Lesions: < .01
Vaccinia IHD virus; 10 ng, day 12
  Statistical Significance of Tail Lesions: < .01
Vaccinia IHD virus; 10 ng, day 14
  Statistical Significance of Tail Lesions: < .01
Vaccinia IHD virus; 10 ng, day 17
  Statistical Significance of Tail Lesions: < .01
Vaccinia IHD virus; 10 ng, day 21
  Statistical Significance of Tail Lesions: < .01
Vaccinia IHD virus; 1 μg, day 5
  Statistical Significance of Tail Lesions: < .01
Vaccinia IHD virus; 1 μg, day 6
  Statistical Significance of Tail Lesions: < .01
Vaccinia IHD virus; 1 μg, day 7
  Statistical Significance of Tail Lesions: < .05
Vaccinia IHD virus; 1 μg, day 8
  Statistical Significance of Tail Lesions: < .01
Vaccinia IHD virus; 1 μg, day 10
  Statistical Significance of Tail Lesions: < .01
Vaccinia IHD virus; 1 μg, day 11
  Statistical Significance of Tail Lesions: < .01
Vaccinia IHD virus; 1 μg, day 12
  Statistical Significance of Tail Lesions: < .01
Vaccinia IHD virus; 1 μg, day 14
  Statistical Significance of Tail Lesions: < .01
Vaccinia IHD virus; 1 μg, day 17
  Statistical Significance of Tail Lesions: < .01
Vaccinia IHD virus; 1 μg, day 21
  Statistical Significance of Tail Lesions: < .01
Vaccinia IHD virus; 10 [μg], day 6
  Statistical Significance of Tail Lesions: < .01
Vaccinia IHD virus; 10 [μg], day 7
  Statistical Significance of Tail Lesions: < .05
Vaccinia IHD virus; 10 [μg], day 8
  Statistical Significance of Tail Lesions: < .05
Vaccinia IHD virus; 10 [μg], day 10
  Statistical Significance of Tail Lesions: < .01
Vaccinia IHD virus; 10 [μg], day 11
  Statistical Significance of Tail Lesions: < .05
Vaccinia IHD virus; 10 [μg], day 12
  Statistical Significance of Tail Lesions: < .05
Vaccinia IHD virus; 10 [μg], day 14
  Statistical Significance of Tail Lesions: < .05
Vaccinia IHD virus; 10 [μg], day 17
  Statistical Significance of Tail Lesions: < .01
Vaccinia IHD virus; 10 [μg], day 21
  Statistical Significance of Tail Lesions: < .01
Vaccinia IHD virus; 100 [ng], day 5
  Statistical Significance of Tail Lesions: < .05
Vaccinia IHD virus; 100 [ng], day 6
  Statistical Significance of Tail Lesions: < .01
Vaccinia IHD virus; 100 [ng], day 7
  Statistical Significance of Tail Lesions: < .01
Vaccinia IHD virus; 100 [ng], day 8
  Statistical Significance of Tail Lesions: < .01
Vaccinia IHD virus; 100 [ng], day 10
  Statistical Significance of Tail Lesions: < .01
Vaccinia IHD virus; 100 [ng], day 11
  Statistical Significance of Tail Lesions: < .01
Vaccinia IHD virus; 100 [ng], day 12
  Statistical Significance of Tail Lesions: < .01
Vaccinia IHD virus; 100 [ng], day 14
  Statistical Significance of Tail Lesions: < .01
Vaccinia IHD virus; 100 [ng], day 17
  Statistical Significance of Tail Lesions: < .01
Vaccinia IHD virus; 100 [ng], day 21
  Statistical Significance of Tail Lesions: < .01
Vaccinia IHD virus; mouse, in vivo
  activity in words: most active of the compounds tested
Influenza PR 8 virus [2]; 0.5 Mg/ml in water, 24 h pre and 24 h post
  Survivors: 1
Influenza PR 8 virus [2]; 10 Mg/ml in water, 24 h pre and 24 h post
  Survivors: 2
Influenza PR 8 virus [2]; 24 h post-infection only, first of two printed columns
  Survivors: 0
Herpes virus [3]; 2 μg
  Deaths on day 1: 1
  Deaths on day 2: 5
  Deaths on day 3: 3
  No. dying 5-22 day: 2
  No. hatched: 1
  No. living longer than controls: 3
  Total deaths, 4th day: 9
Herpes virus [3]; 20 μg
  Deaths on day 2: 5
  Deaths on day 3: 1
  Deaths on day 4: 2
  No. dying 5-22 day: 1
  No. living longer than controls: 4
  Total deaths, 4th day: 8
Herpes virus [3]; .00005 μg
  Deaths on day 1: 2
  Deaths on day 2: 4
  Deaths on day 3: 5
  No. dying 5-22 day: 0
  No. hatched: 1
  No. living longer than controls: 1
  Total deaths, 4th day: 11
Herpes virus [3]; .0005 μg
  Deaths on day 1: 1
  Deaths on day 2: 5
  Deaths on day 3: 3
  Deaths on day 4: 1
  No. dying 5-22 day: 0
  No. hatched: 1
  No. living longer than controls: 2
  Total deaths, 4th day: 10
Herpes virus [3]; .005 μg
  Deaths on day 1: 2
  Deaths on day 2: 4
  Deaths on day 3: 2
  Deaths on day 4: 3
  No. dying 5-22 day: 0
  No. living longer than controls: 1
  Total deaths, 4th day: 11
Herpes virus [3]; .05 μg
  Deaths on day 1: 2
  Deaths on day 2: 6
  Deaths on day 3: 3
  No. dying 5-22 day: 1
  No. living longer than controls: 1
  Total deaths, 4th day: 11
Herpes virus [3]; .5 μg
  Deaths on day 1: 1
  Deaths on day 2: 3
  Deaths on day 3: 6
  Deaths on day 4: 2
  No. dying 5-22 day: 0
  No. living longer than controls: 0
  Total deaths, 4th day: 12
Herpes virus [3]; all doses
  Total no. hatched: 5
  Total no. living longer than controls: 12
Vaccinia virus [4]
  effect on pox formation: variable
Influenza PR 8 virus [5]
  No. animals surviving when 18/20 of controls are dead: 2
  Survivors: 2
Influenza PR 8 virus [6]; total dose .000005 μg
  No. animals surviving after 6-8 days: 2
  Survivors: 0
Influenza PR 8 virus [6]; total dose .00005 μg
  Survivors: 0
Influenza PR 8 virus [6]; total dose .0005 μg
  No. animals surviving after 6-8 days: 1
  Survivors: 1
Influenza PR 8 virus [6]; total dose .005 μg
  Survivors: 0
Viral infections
  activity in words: one of the most active compounds
Columbia SK Polio virus; total dose 3 ng
  No. animals surviving after 5 days: 7
  Survivors: 0
Columbia SK Polio virus; total dose 30 ng
  No. animals surviving after 5 days: 8
  Survivors: 0
Columbia SK Polio virus; total dose 300 ng
  No. animals surviving after 5 days: 6
  Survivors: 1
Influenza PR 8 virus [7]; total dose .000005 μg
  No. animals surviving after 6-10 days: 6
  Survivors: 0
Influenza PR 8 virus [7]; [11]
  No. animals surviving after 6-10 days: 4
  No. animals surviving when 100% (or given fraction) of controls are dead: 2
  Survivors: 1
Influenza PR 8 virus [7]; total dose .00005 μg
  Survivors: 4
Influenza PR 8 virus [7]; [12]
  No. animals surviving after 6-10 days: 5
  Survivors: 2
Influenza PR 8 virus [7]; [13]
  No. animals surviving after 6-10 days: 8 and 4
  No. animals surviving when 100% (or given fraction) of controls are dead: 4
Influenza PR 8 virus [7]; total dose .0005 μg
  No. animals surviving after 6-10 days: 2
  No. animals surviving when 100% (or given fraction) of controls are dead: 1
  Survivors: 1
Influenza PR 8 virus [7]; total dose .005 μg
  No. animals surviving after 6-10 days: 2
  No. animals surviving when 100% (or given fraction) of controls are dead: 1
  Survivors: 1
Influenza PR 8 virus [7]; total dose .005 μg, thiosemicarbazone
  Survivors: 0

## NNC(N)=O [semicarbazide]
Herpes virus [1]; mouse, in vivo
  animals survived: 20 to 30%
Herpes virus [1]; no pre-treatment, one dose level
  animals protected: 50%
Herpes virus [1]; total dose 5 μg
  No. animals surviving after 6-9 days: 7
Herpes virus [1]; total dose .00005 μg
  No. animals surviving after 6-9 days: 5
  No. animals surviving when 100% (or given fraction) of controls are dead: 5
Herpes virus [1]; total dose .0005 μg
  No. animals surviving when 100% (or given fraction) of controls are dead: 0
Herpes virus [1]; total dose .05 μg
  No. animals surviving after 6-9 days: 5
[8]; total dose .000005 μg (5 pg)
  No. animals surviving when 100% (Table 61: 16/20) of controls are dead: 0
  Survivors: 0
[8]; total dose .00005 μg (50 pg)
  No. animals surviving when 100% (Table 61: 16/20) of controls are dead: 0
  Survivors: 0
[8]; total dose .0005 μg (500 pg)
  No. animals surviving when 100% (Table 61: 16/20) of controls are dead: 1
  Survivors: 0
[8]; total dose .005 μg (5 ng)
  No. animals surviving after 5 days (Table 61: 11 days): 6
  No. animals surviving when 100% (Table 61: 16/20) of controls are dead: 3
  Survivors: 0
[8]; total dose .05 μg (50 ng)
  No. animals surviving after 5 days (Table 61: 11 days): 6
  No. animals surviving when 100% (Table 61: 16/20) of controls are dead: 1
  Survivors: 0
[8]; total dose .5 μg (500 ng)
  No. animals surviving when 100% (Table 61: 16/20) of controls are dead: 1
  Survivors: 0
Herpes virus [3]; 2 μg
  No. dying 5-22 day: 0
  No. living longer than controls: 0
  Total deaths, 4th day: 10
Herpes virus [3]; 20 μg
  Deaths on day 2: 1
  Deaths on day 3: 5
  No. dying 5-22 day: 0
  No. living longer than controls: 1
  Total deaths, 4th day: 11
Herpes virus [3]; .00005 μg
  Deaths on day 1: 4
  Deaths on day 3: 4
  No. dying 5-22 day: 1
  No. living longer than controls: 1
  Total deaths, 4th day: 11
Herpes virus [3]; .0005 μg
  Deaths on day 3: 6
  Deaths on day 4: 1
  No. dying 5-22 day: 0
  No. hatched: 1
  No. living longer than controls: 1
  Total deaths, 4th day: 11
Herpes virus [3]; .005 μg
  No. hatched: 1
  No. living longer than controls: 4
  Total deaths, 4th day: 7
Herpes virus [3]; .05 μg
  Deaths on day 1: 1
  Deaths on day 2: 4
  Deaths on day 3: 6
  No. dying 5-22 day: 0
  No. living longer than controls: 1
  Total deaths, 4th day: 11
Herpes virus [3]; .5 μg
  Deaths on day 3: 5
  Total deaths, 4th day: 9
Herpes virus [3]; all doses
  Total no. living longer than controls: 10
Vaccinia virus [9]
  effect on pox formation on the membrane: No effect
[10]
  No. animals surviving after 5-9 days: 0
Influenza PR 8 virus [7]; total dose .000005 μg
  Survivors: 0
Influenza PR 8 virus [7]; total dose .00005 μg
  No. animals surviving when 100% (or given fraction) of controls are dead: 0
  Survivors: 0
Influenza PR 8 virus [7]; total dose .0005 μg
  No. animals surviving when 100% (or given fraction) of controls are dead: 0
  Survivors: 0
Influenza PR 8 virus [7]; total dose .005 μg
  No. animals surviving when 100% (or given fraction) of controls are dead: 0
  Survivors: 0
